Here are results for four molecules from publication PMC11176637 (iScience, 2024).

Molecules are shown by their SMILES.

The test system of the assay is VSVΔG-SW (S glycoprotein of the SARS-CoV-2 Wuhan variant). As to the kind of experiment: microbe, parasite or virus in culture. Format: cell-based. The conditions noted are these: for IC50 against VSVΔG-SW: 0.3125–40 μM.

Turning to `COc1ccc2cc3c(N)nn(C(=O)Cc4c[nH]c5ccccc45)c3nc2c1` [PCM-0166392, 1-{6-amino-12-methoxy-2,4,5-triazatricyclo[7.4.0.0³,⁷]trideca-1,3(7),5,8,10,12-hexaen-4-yl}-2-(3-indolyl)-1-ethanone], the “IC50 against VSVΔG-SW” value was “relatively high activity”.
In the case of `Nc1nc(Nc2ccccc2)sc1C(=O)c1ccccc1Cl` [PCM-0179622, (4-amino-2-anilino-1,3-thiazol-5-yl)(o-chlorophenyl)methanone], the “IC50 against VSVΔG-SW” value is reported as “relatively high activity”.
The same measure, in the same setting: to `CNC(=O)C(C#N)(Cc1cc(Cl)cc2c1OCOC2)Cc1cc(Cl)cc2c1OCOC2` [PCM-0068389, N-methyl3-(6-chloro-2,4-dihydro-1,3-benzodioxin-8-yl)-2-[(6-chloro-2,4-dihydro-1,3-benzodioxin-8-yl)methyl]-2-cyanopropionamide] belongs “lost all activity”.
With `Cc1cccc(NC(=O)CS(=O)(=O)c2nc(-c3ccccc3)cn2-c2ccc(Cl)cc2)c1C` [PCM-0163855, 2-((1-(4-chlorophenyl)-4-phenyl-1H-imidazol-2-yl)sulfonyl)-N-(2,3-dimethylphenyl)acetamide], the IC50 (usually the concentration that gives 50% inhibition) (Severe acute respiratory syndrome coronavirus 2, read-out: IC50 against VSVΔG-SW) turned out to be 0.6 µM.
